Experimental data from patent US20110130447A1, “Production of hop extracts having oestrogenic and antiproliferative bioactivity” (priority 2004, published 2011).

Experiments:
[1] = cited from earlier work; for oestrogenic activity: Milligan et al., 1999, 2000
human oestrogen receptor = target: T1, human oestrogen receptor (Homo sapiens, UniProt P03372); assay: Oestrogen-inducible yeast screen (Lac-Z reporter); type: cell-based; settings: FIG. 4, relative to 8-prenylnaringenin
T1 construct: expressed in transfected cells; host or cells: Saccharomyces cerevisiae
Method: The yeasts were grown in a medium containing increasing concentrations of 17β-estradiol (positive control), 8-prenylnaringenin (8-PN), 8-isopentylnaringenin (8PN-H2) or dihydro-isoxanthohumol (IsoX-H2). Expression of the Lac-Z reporter gene was spectrophotometrically measured and quantified.

[2] = Bioavailability and stability of 8-isopentylnaringenin compared with 8-prenylnaringenin
[3] = Milligan et al., 2002; cited from earlier work
[4] = tested on: oestrogen-responsive MCF-7 breast cancer cells; assay: Bioassay of 8-prenylnaringenin-induced proliferation of MCF-7 cells and its inhibition by xanthohumol; type: cell-based
Method: A bioassay was developed to probe proliferation of oestrogen-dependent cancer cells by 8-prenylnaringenin and to determine concentrations of xanthohumol required to inhibit this 8-prenylnaringenin-induced proliferation. Thereto, oestrogen-responsive MCF-7 breast cancer cells were grown in 96-well plates in the presence of a fixed and growth-stimulatory concentration of 8-prenylnaringenin and varying concentrations of xanthohumol. For each concentration of 8-prenylnaringenin (1 nM, 10 nM, and 100 nM), the concentrations of xanthohumol were 0 μM, 0.1 μM, 1 μM, 5 μM, 10 μM and 25 μM, respectively.

[5] = tested on: mouse mammary gland organ culture; settings: Gerhauser et al., 2002; cited from earlier work
cyclooxygenase-2 = target: T2, cyclooxygenase-2 (Homo sapiens, UniProt P35354); settings: Gerhauser et al., 2002; cited from earlier work
T2 sequence (P35354 18-604): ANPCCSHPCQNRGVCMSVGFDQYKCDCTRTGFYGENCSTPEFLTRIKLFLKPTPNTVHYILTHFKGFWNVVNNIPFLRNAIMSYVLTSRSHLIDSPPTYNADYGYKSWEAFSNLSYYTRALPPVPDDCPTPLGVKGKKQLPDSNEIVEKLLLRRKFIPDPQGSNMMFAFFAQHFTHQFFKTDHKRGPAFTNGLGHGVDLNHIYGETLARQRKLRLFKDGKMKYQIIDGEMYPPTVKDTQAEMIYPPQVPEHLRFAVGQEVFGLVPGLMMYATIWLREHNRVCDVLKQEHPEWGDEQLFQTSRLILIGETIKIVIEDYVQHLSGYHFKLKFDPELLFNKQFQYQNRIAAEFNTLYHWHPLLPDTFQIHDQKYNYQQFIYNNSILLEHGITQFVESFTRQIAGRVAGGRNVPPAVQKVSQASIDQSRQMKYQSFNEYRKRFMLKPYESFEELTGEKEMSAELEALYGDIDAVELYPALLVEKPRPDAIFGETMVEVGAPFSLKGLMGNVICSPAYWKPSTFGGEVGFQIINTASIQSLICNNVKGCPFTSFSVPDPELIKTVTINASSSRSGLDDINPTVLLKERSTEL

cyclooxygenase-1 = target: T3, cyclooxygenase-1 (Ovis aries, UniProt P05979); settings: Gerhauser et al., 2002; cited from earlier work
T3 sequence (P05979 25-600): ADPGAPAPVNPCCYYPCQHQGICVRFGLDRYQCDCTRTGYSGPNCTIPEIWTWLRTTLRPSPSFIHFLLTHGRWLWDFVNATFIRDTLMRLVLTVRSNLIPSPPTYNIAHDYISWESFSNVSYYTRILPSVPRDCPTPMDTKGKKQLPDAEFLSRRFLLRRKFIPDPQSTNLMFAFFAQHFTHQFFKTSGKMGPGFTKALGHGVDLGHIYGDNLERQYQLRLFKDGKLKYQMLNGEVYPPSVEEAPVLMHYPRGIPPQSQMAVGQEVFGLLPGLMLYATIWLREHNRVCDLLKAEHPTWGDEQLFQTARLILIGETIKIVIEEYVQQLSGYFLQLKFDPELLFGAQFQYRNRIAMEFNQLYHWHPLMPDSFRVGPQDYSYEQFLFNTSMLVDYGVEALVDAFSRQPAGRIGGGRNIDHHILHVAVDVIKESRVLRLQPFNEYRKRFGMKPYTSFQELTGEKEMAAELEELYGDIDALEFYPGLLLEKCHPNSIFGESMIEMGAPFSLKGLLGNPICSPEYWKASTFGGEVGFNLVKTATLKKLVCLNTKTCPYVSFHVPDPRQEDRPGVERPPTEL

T1 sequence (P03372 whole entry): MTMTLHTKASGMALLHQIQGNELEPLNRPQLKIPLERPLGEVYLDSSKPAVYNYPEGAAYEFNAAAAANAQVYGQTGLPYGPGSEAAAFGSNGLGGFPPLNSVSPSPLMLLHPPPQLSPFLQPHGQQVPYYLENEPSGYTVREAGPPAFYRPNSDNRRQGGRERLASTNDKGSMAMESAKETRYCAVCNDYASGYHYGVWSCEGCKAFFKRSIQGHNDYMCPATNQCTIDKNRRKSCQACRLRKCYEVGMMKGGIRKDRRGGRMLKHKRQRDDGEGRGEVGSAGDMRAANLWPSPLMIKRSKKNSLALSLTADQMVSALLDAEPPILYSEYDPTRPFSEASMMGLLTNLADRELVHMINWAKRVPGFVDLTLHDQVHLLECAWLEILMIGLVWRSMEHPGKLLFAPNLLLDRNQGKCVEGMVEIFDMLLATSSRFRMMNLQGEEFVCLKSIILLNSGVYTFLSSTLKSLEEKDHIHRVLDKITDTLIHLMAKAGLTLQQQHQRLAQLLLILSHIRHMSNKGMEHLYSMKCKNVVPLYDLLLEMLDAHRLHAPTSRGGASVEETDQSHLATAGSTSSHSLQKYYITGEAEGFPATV

Structure (SMILES): CC(C)=CCc1c(O)c(CC=C(C)C)c2c(c1O)C(=O)C[C@@H](c1ccc(O)cc1)O2 [6,8-diprenylnaringenin]
- oestrogenic activity [1]: only weakly oestrogenic

Structure (SMILES): CC(C)=CCc1c(O)cc2c(c1O)C(=O)C[C@@H](c1ccc(O)cc1)O2 [6-prenylnaringenin]
- oestrogenic activity [1]: only weakly oestrogenic

Structure (SMILES): CC(C)=CCC/C(C)=C/Cc1c(O)cc(O)c2c1O[C@H](c1ccc(O)cc1)CC2=O [8-geranylnarin-genin]
- oestrogenic activity [1]: only weakly oestrogenic

Structure (SMILES): CC(C)CCc1c(O)cc(O)c2c1O[C@H](c1ccc(O)cc1)CC2=O [8-isopentylnaringenin]
- oestrogenic activity, times weaker than 8-prenylnaringenin (human oestrogen receptor): 3-4 times
- stability compared to 8-prenylnaringenin (less easily metabolised) [2]: better stability

Structure (SMILES): CC(C)=CCc1c(O)cc(O)c2c1O[C@H](c1ccc(O)cc1)CC2=O [8-prenylnaringenin]
- oestrogenic activity in vivo [3]: high oestrogenic activity
- proliferation of MCF-7 breast cancer cells ([4]; increasing concentrations of 8-prenylnaringenin (1 nM, 10 nM, 100 nM), FIG. 2): increased proliferation
- oestrogenic activity [1]: activity greater than that of other established phyto-oestrogens

Structure (SMILES): COc1cc(O)c(CC=C(C)C)c2c1C(=O)CC(c1ccc(O)cc1)O2 (stereo not shown) [isoxanthohumol]
- oestrogenic activity [1]: only weakly oestrogenic

Structure (SMILES): COc1cc(O)c(CC=C(C)C)c(O)c1C(=O)/C=C/c1ccc(O)cc1 [xanthohumol]
- xanthohumol to 8-prenylnaringenin weight ratio giving sufficient inhibition of proliferation ([4]; FIG. 2): at least 10
- concentrations of xanthohumol that significantly inhibit the proliferation induced by 8-prenylnaringenin ([4]; MCF-7 cells, 8-prenylnaringenin 1, 10, 100 nM): at least 5 μM
- concentrations of xanthohumol that stimulated the proliferation induced by 8-prenylnaringenin ([4]; MCF-7 cells, each concentration of 8-prenylnaringenin, ratio of xanthohumol to 8-prenylnaringenin below 10): < 1 µM
- oestrogenic activity of xanthohumol ([1]; no source stated): oestrogenically inactive
- prevention of carcinogen-induced preneoplastic lesions [5]: efficient at nanomolar concentrations
- inhibition of cyclooxygenase-2 activity (cyclooxygenase-2): inhibition
- inhibition of cyclooxygenase-1 activity (cyclooxygenase-1): inhibition
